Test results as given in patent publication US11771694B2, “Arylamide compounds for treatment and prevention of viral infections” (priority 2020, dated 2023).
Converted amounts (≈) assume the structure as drawn. Where two headings read alike, the source gives them in different places.

What was measured:
SARS-CoV-2 = assay: microbe, parasite or virus in culture; format: cell-based
[1] = test system: luciferase-expressing pseudotyped virus (rVSV) containing the SARS-CoV-2 spike protein; format: cell-based
[2] = test system: SARS-CoV-2 spike pseudotyped luciferase virus; format: cell-based
HCoV-229E = assay: Virus yield reduction assay, HCoV-229E on Huh-7 cells; format: cell-based; details: Human coronavirus 229E, 48 hours post-infection
Procedure: (§1) For these assays, brilacidin was included during viruses infection and post infection stages. The EC50 values were calculated from best-fit dose response curves with variable slope in Prism 8.

HCoV-NL63 = assay: Virus yield reduction assay, HCoV-NL63 on Vero cells; format: cell-based; details: Human coronavirus NL63, 48 hours post-infection
Procedure: as §1

[3] = test system: LPS-induced MMP-9 release; assay: LPS-induced MMP-9 release, NR8383 cells, ELISA; format: cell-based; details: Rattus norvegicus, 8-hour exposure, read-out: IC50, inhibition of LPS-induced MMP-9 release
LPS-induced IL-6 release = assay: LPS-induced IL-6 release, NR8383 cells, ELISA; format: cell-based; details: Rattus norvegicus, 8-hour exposure, read-out: IC50, inhibition of LPS-induced IL-6 release
[4] = test system: LPS-induced IL-1β release; assay: LPS-induced IL-1β release, NR8383 cells, ELISA; format: cell-based; details: Rattus norvegicus, 8-hour exposure, read-out: IC50, inhibition of LPS-induced IL-1β release
[5] = test system: LPS-induced CINC-3 release; assay: LPS-induced CINC-3 release, NR8383 cells, ELISA; format: cell-based; details: Rattus norvegicus, 8-hour exposure, read-out: IC50, inhibition of LPS-induced CINC-3 release
LPS-induced IL-8 release = assay: LPS-induced IL-8 release, THP-1 cells, ELISA; format: cell-based; details: Homo sapiens, 8-hour exposure, read-out: IC50, inhibition of LPS-induced IL-8 release
[6] = test system: Ulcerative Proctosigmoiditis/Ulcerative Proctitis (UP/UPS); assay: Phase 2 study CTIX-BRI-206 in Ulcerative Proctosigmoiditis/Ulcerative Proctitis; format: in vivo, human
Text: Inflammatory biomarkers IL-1β and IL-6 were reduced in colonic tissue biopsies collected at Week 6 (Day 42) compared to those biopsies collected at baseline (FIG. 20, Panel B).

[7] = test system: dextran sulfate sodium (DSS) induced colitis; assay: Mouse DSS colitis model; format: in vivo, mice
Staph. epidermidis = assay: Broth microdilution MIC; format: cell-based; details: Staphylococcus epidermidis; Staph. epidermidis; 2-3 isolates/organism; read-out: MIC
Staph. spp. coagulase- = assay: Broth microdilution MIC; format: cell-based; details: Staph. spp. coagulase-; 2-3 isolates/organism; read-out: MIC
Strept. pyogenes = assay: Broth microdilution MIC; format: cell-based; details: Streptococcus pyogenes; Strept. pyogenes; 2-3 isolates/organism; read-out: MIC
Citrobacter koseri = assay: Broth microdilution MIC; format: cell-based; details: 2-3 isolates/organism, read-out: MIC
Enterobacter cloacae = assay: Broth microdilution MIC; format: cell-based; details: 2-3 isolates/organism, read-out: MIC
Klebsiella pneumoniae = assay: Broth microdilution MIC; format: cell-based; details: 2-3 isolates/organism, read-out: MIC
Haemophilus influenzae = assay: Broth microdilution MIC; format: cell-based; details: 2-3 isolates/organism, read-out: MIC
S. aureus = assay: microbe, parasite or virus in culture; format: cell-based; details: Staphylococcus aureus; value marked * = MIC90
[8] = test system: mammalian cells (RBCs, 3T3, HepG2); format: cell-based
[9] = test system: SARS-CoV-2 (Washington strain 2019-nCoV/USA-WA1/2020); details: Vero; direct assay; 10 μM; 24 hpi
[10] = test system: S. aureus and coagulase-negative staphylococci; assay: Broth microdilution MIC, defined phenotypes in Staphylococcus species
[11] = Severe acute respiratory syndrome coronavirus 2, Calu-3
[12] = brilacidin 400 mg/kg, 5-ASA 50 mg/kg per rectum, vs DSS-treated control group, end of study

## N=C(N)NCCCCC(=O)Nc1cc(C(F)(F)F)cc(NC(=O)c2cc(C(=O)Nc3cc(C(F)(F)F)cc(NC(=O)CCCCNC(=N)N)c3OC3CCNC3)ncn2)c1OC1CCNC1 (stereo not shown) [brilacidin]
SARS-CoV-2; 10 µM
  reduction of infectious viral titer: 95%
SARS-CoV-2; 20 µM
  reduction of infectious viral titer: 97%
SARS-CoV-2; Calu-3
  Selectivity Index (CC50/IC50): 426
SARS-CoV-2; Calu-3, 10 μM
  inhibition exerted at the MOIs of 0.1 and 0.05: comparable to each other
SARS-CoV-2; Calu-3, 10 μM, MOIs 0.01 and 0.001
  inhibition of virus at the lower MOIs: not showing statistical significance
SARS-CoV-2; Calu-3, inoculum incubated with 5, 10 or 20 μM for 1 hour, no pre- or post-treatment of cells, Washington and Italy strains
  infectious virus titer, treatment of virus alone (E, entry): marked reductions of virus titer
SARS-CoV-2; [11]
  IC50: 565 nM
  IC90: 2630 nM
SARS-CoV-2; Severe acute respiratory syndrome coronavirus 2, Calu-3, read-out: inhibition of infectious viral titer
  inhibition at 20 µM: 61%
[1]
  intracellular spike protein signal: decreased intracellular spike protein signal
[2]; 0.1 μg/ml
  inhibition (luciferase activity) vs vehicle control: 29%
[2]; 100 μg/ml
  inhibition (luciferase activity) vs vehicle control: 85%
HCoV-229E
  EC50: 1950 ± 67 nM
HCoV-NL63
  EC50: 2450 ± 52 nM
[3]
  IC50: 2300 nM
LPS-induced IL-6 release
  IC50: 274 nM
[4]
  IC50: 702 nM
[5]
  IC50: 425 nM
LPS-induced IL-8 release
  IC50: 10800 nM
[6]; Week 6 (Day 42) compared to baseline
  inflammatory biomarkers IL-1β and IL-6 in colonic tissue biopsies: reduced
[6]; each cohort (50 mg, 100 mg, 200 mg daily retention enema), after 6 weeks
  clinical remission (with Endoscopic response), subjects: > 50%
[7]; 400 mg/kg per rectum Days 7-11, by Day 11 vs DSS-treated control group
  rectal bleeding: significant decrease
[7]; 400 mg/kg per rectum Days 7-11, vs DSS-treated control group
  stool consistency: significantly more firm
[7]; [12]
  mean reduction in IL-1β in distal colon tissue: 27%
  mean reduction in IL-6 in distal colon tissue: 40%
Staph. epidermidis
  MIC: 0.25 to 0.5 µg/mL (≈ 0.267 to 0.534 µM)
Staph. spp. coagulase-
  MIC: 0.25 to 0.5 µg/mL (≈ 0.267 to 0.534 µM)
Strept. pyogenes
  MIC: 1 to 4 µg/mL (≈ 1.07 to 4.27 µM)
Citrobacter koseri
  MIC: 1 to 2 µg/mL (≈ 1.07 to 2.13 µM)
Enterobacter cloacae
  MIC: 0.5 to 4 µg/mL (≈ 0.534 to 4.27 µM)
Klebsiella pneumoniae
  MIC: 1 to 2 µg/mL (≈ 1.07 to 2.13 µM)
Haemophilus influenzae
  MIC: 4 to 8 µg/mL (≈ 4.27 to 8.54 µM)
S. aureus
  MIC90: 1 µg/mL (≈ 1.07 µM)
[8]
  folds more selective than natural HDPs: 50 to 100 folds
[9]
  decrease in the viral genomic copies: 29%
Calu-3 cells; 10 and 20 μM, 24 hours
  toxicity in Calu-3 cells: nontoxic
Calu-3 cells; Calu-3, 24 hpt, Hill model fit
  CC10 (90% viability): 26800 nM
[10]; DAP-NS, OXA-R, 5 isolates
  Brilacidin MIC: 0.5-2
[10]; Drug-Susceptible, 217 isolates
  Brilacidin MIC: 0.25-1
[10]; LZD, OXA-R, 5 isolates
  Brilacidin MIC: 0.5-1
[10]; OXA-R, 161 isolates
  Brilacidin MIC: 0.25-2
[10]; VRSA/VISA, DAP-NS, OXA-R, 3 isolates
  Brilacidin MIC: 0.5-1
[10]; VRSA/VISA, OXA-R, 7 isolates
  Brilacidin MIC: 0.5-1
